Test results from PubChem BioAssay AID1845201 (Molecular Pharmacology Branch, DTP, NCI, 2023).

Tested on: COR L88 complex tumor spheroid viability
Assay: Anticancer human tumor COR L88 cell line growth inhibition;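 note: compound exposure lasted 7 days before viability readout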;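 for viability, T/C: percent of DMSO vehicle-treated spheroids = 100%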
Conditions: for IC50: curve of first compound; for viability, T/C: stronger effect = lower value
Summary of the method: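 Complex spheroids of malignant cells with endothelial cells and mesenchymal stem cells; agents alone or combined, from near clinical Cmax (or 10 microM if unknown) down in half-log steps, 0.25% DMSO final.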

[1] = second compound 0.003 µM, first compound 0.0316 µM
[2] = second compound 0.003 µM, first compound 0.1 µM
[3] = second compound 0.003 µM, first compound 0.316 µM
[4] = second compound 0.003 µM, first compound 1 µM
[5] = second compound 0.003 µM, first compound 3.16 µM
[6] = second compound 0.003 µM, first compound 10 µM

Structure (SMILES): CC(C)n1c(=O)n(C)c2cnc3cc(F)c(-c4ccc(OCCCN5CCCCC5)nc4)cc3c21 + COc1cc2c(cc1O)CCNC21CSC2c3c(OC(C)=O)c(C)c4c(c3C(COC1=O)N1C(O)C3Cc5cc(C)c(OC)c(O)c5C(C21)N3C)OCO4
- IC50 (second compound 30 pM): > 10 µM
- IC50 (second compound 94.9 pM): 9.08 µM
- IC50 (second compound 0.0003 µM): 4.84 µM
- IC50 (second compound 0.000949 µM): 1.99 µM
- IC50 (second compound 0.003 µM): < 0.0316 µM
- viability, T/C (second compound 30 pM, first compound 0.0316 µM): 104%
- viability, T/C (second compound 30 pM, first compound 0.1 µM): 107%
- viability, T/C (second compound 30 pM, first compound 0.316 µM): 95.9%
- viability, T/C (second compound 30 pM, first compound 1 µM): 104%
- viability, T/C (second compound 30 pM, first compound 3.16 µM): 94.1%
- viability, T/C (second compound 30 pM, first compound 10 µM): 51.2%
- viability, T/C (second compound 94.9 pM, first compound 0.0316 µM): 104%
- viability, T/C (second compound 94.9 pM, first compound 0.1 µM): 103%
- viability, T/C (second compound 94.9 pM, first compound 0.316 µM): 98%
- viability, T/C (second compound 94.9 pM, first compound 1 µM): 103%
- viability, T/C (second compound 94.9 pM, first compound 3.16 µM): 89.3%
- viability, T/C (second compound 94.9 pM, first compound 10 µM): 46.1%
- viability, T/C (second compound 0.0003 µM, first compound 0.0316 µM): 64.2%
- viability, T/C (second compound 0.0003 µM, first compound 0.1 µM): 67.4%
- viability, T/C (second compound 0.0003 µM, first compound 0.316 µM): 65.2%
- viability, T/C (second compound 0.0003 µM, first compound 1 µM): 68.3%
- viability, T/C (second compound 0.0003 µM, first compound 3.16 µM): 61.2%
- viability, T/C (second compound 0.0003 µM, first compound 10 µM): 30.1%
- viability, T/C (second compound 0.000949 µM, first compound 0.0316 µM): 57.3%
- viability, T/C (second compound 0.000949 µM, first compound 0.1 µM): 54.5%
- viability, T/C (second compound 0.000949 µM, first compound 0.316 µM): 54.7%
- viability, T/C (second compound 0.000949 µM, first compound 1 µM): 53.9%
- viability, T/C (second compound 0.000949 µM, first compound 3.16 µM): 47.3%
- viability, T/C (second compound 0.000949 µM, first compound 10 µM): 11.1%
- viability, T/C [1]: 0.74%
- viability, T/C [2]: 0.77%
- viability, T/C [3]: 0.6%
- viability, T/C [4]: 0.82%
- viability, T/C [5]: 0.66%
- viability, T/C [6]: 0.99%

Structure (SMILES): O=C(c1cc(Cc2n[nH]c(=O)c3ccccc23)ccc1F)N1CCN(C(=O)C2CC2)CC1 + COc1cc2c(cc1O)CCNC21CSC2c3c(OC(C)=O)c(C)c4c(c3C(COC1=O)N1C(O)C3Cc5cc(C)c(OC)c(O)c5C(C21)N3C)OCO4
- IC50 (second compound 30 pM): 14.5 µM
- IC50 (second compound 94.9 pM): 11.3 µM
- IC50 (second compound 0.0003 µM): > 30 µM
- IC50 (second compound 0.000949 µM): 0.683 µM
- IC50 (second compound 0.003 µM): < 0.0949 µM
- viability, T/C (second compound 30 pM, first compound 0.0949 µM): 93.6%
- viability, T/C (second compound 30 pM, first compound 0.3 µM): 107%
- viability, T/C (second compound 30 pM, first compound 0.949 µM): 95%
- viability, T/C (second compound 30 pM, first compound 3 µM): 81.7%
- viability, T/C (second compound 30 pM, first compound 9.49 µM): 54.6%
- viability, T/C (second compound 30 pM, first compound 30 µM): 42.4%
- viability, T/C (second compound 94.9 pM, first compound 0.0949 µM): 98.9%
- viability, T/C (second compound 94.9 pM, first compound 0.3 µM): 96.4%
- viability, T/C (second compound 94.9 pM, first compound 0.949 µM): 101%
- viability, T/C (second compound 94.9 pM, first compound 3 µM): 71.8%
- viability, T/C (second compound 94.9 pM, first compound 9.49 µM): 54.9%
- viability, T/C (second compound 94.9 pM, first compound 30 µM): 43%
- viability, T/C (second compound 0.0003 µM, first compound 0.0949 µM): 74.9%
- viability, T/C (second compound 0.0003 µM, first compound 0.3 µM): 63.4%
- viability, T/C (second compound 0.0003 µM, first compound 0.949 µM): 64.1%
- viability, T/C (second compound 0.0003 µM, first compound 3 µM): 60.6%
- viability, T/C (second compound 0.0003 µM, first compound 9.49 µM): 48.5%
- viability, T/C (second compound 0.0003 µM, first compound 30 µM): 56.8%
- viability, T/C (second compound 0.000949 µM, first compound 0.0949 µM): 57.2%
- viability, T/C (second compound 0.000949 µM, first compound 0.3 µM): 56.2%
- viability, T/C (second compound 0.000949 µM, first compound 0.949 µM): 42.6%
- viability, T/C (second compound 0.000949 µM, first compound 3 µM): 40.7%
- viability, T/C (second compound 0.000949 µM, first compound 9.49 µM): 13.7%
- viability, T/C (second compound 0.000949 µM, first compound 30 µM): 2.22%
- viability, T/C (second compound 0.003 µM, first compound 0.0949 µM): 1.02%
- viability, T/C (second compound 0.003 µM, first compound 0.3 µM): 1.05%
- viability, T/C (second compound 0.003 µM, first compound 0.949 µM): 0.95%
- viability, T/C (second compound 0.003 µM, first compound 3 µM): 1.92%
- viability, T/C (second compound 0.003 µM, first compound 9.49 µM): 2.21%
- viability, T/C (second compound 0.003 µM, first compound 30 µM): 3.25%

Structure (SMILES): COc1cc(C)[nH]c(=O)c1CN1CCc2c(Cl)cc(C(OC)C3COC3)c(Cl)c2C1=O (stereo not given) + CC[C@@]1(O)C(=O)OCc2c1cc1n(c2=O)Cc2cc3c(CN(C)C)c(O)ccc3nc2-1
- IC50 (second compound 0.003 µM): > 10 µM
- IC50 (second compound 0.00949 µM): > 10 µM
- IC50 (second compound 0.03 µM): < 0.0316 µM
- IC50 (second compound 0.0949 µM): < 0.0316 µM
- IC50 (second compound 0.3 µM): < 0.0316 µM
- viability, T/C [1]: 87%
- viability, T/C [2]: 90.9%
- viability, T/C [3]: 83.5%
- viability, T/C [4]: 85.4%
- viability, T/C [5]: 86.5%
- viability, T/C [6]: 75%
- viability, T/C (second compound 0.00949 µM, first compound 0.0316 µM): 65.7%
- viability, T/C (second compound 0.00949 µM, first compound 0.1 µM): 53.2%
- viability, T/C (second compound 0.00949 µM, first compound 0.316 µM): 53.3%
- viability, T/C (second compound 0.00949 µM, first compound 1 µM): 50.9%
- viability, T/C (second compound 0.00949 µM, first compound 3.16 µM): 49%
- viability, T/C (second compound 0.00949 µM, first compound 10 µM): 52.7%
- viability, T/C (second compound 0.03 µM, first compound 0.0316 µM): 43.3%
- viability, T/C (second compound 0.03 µM, first compound 0.1 µM): 44.3%
- viability, T/C (second compound 0.03 µM, first compound 0.316 µM): 38.7%
- viability, T/C (second compound 0.03 µM, first compound 1 µM): 39.2%
- viability, T/C (second compound 0.03 µM, first compound 3.16 µM): 35.5%
- viability, T/C (second compound 0.03 µM, first compound 10 µM): 17.1%
- viability, T/C (second compound 0.0949 µM, first compound 0.0316 µM): 46.2%
- viability, T/C (second compound 0.0949 µM, first compound 0.1 µM): 43.8%
- viability, T/C (second compound 0.0949 µM, first compound 0.316 µM): 41.2%
- viability, T/C (second compound 0.0949 µM, first compound 1 µM): 45.5%
- viability, T/C (second compound 0.0949 µM, first compound 3.16 µM): 38.2%
- viability, T/C (second compound 0.0949 µM, first compound 10 µM): 19.1%
- viability, T/C (second compound 0.3 µM, first compound 0.0316 µM): 47.6%
- viability, T/C (second compound 0.3 µM, first compound 0.1 µM): 46.1%
- viability, T/C (second compound 0.3 µM, first compound 0.316 µM): 41.2%
- viability, T/C (second compound 0.3 µM, first compound 1 µM): 42.8%
- viability, T/C (second compound 0.3 µM, first compound 3.16 µM): 41.2%
- viability, T/C (second compound 0.3 µM, first compound 10 µM): 37.5%
